For the test, the target named is recombinant human SYK (GST-hSYK fusion protein) (Homo sapiens, UniProt P43405). As to the kind of experiment: biochemical. Particulars: rhSYK Activity (IC50), recombinant human GST-SYK 5 pM, ATP 25 μM, biotinylated substrate peptide 250 nM, HTRF, 10-dose titration. In general terms: Time-resolved FRET reads energy transfer from a long-lived donor to a nearby acceptor.
Source text: Homogeneous Time-Resolved Fluorescence (HTRF) Assay for the Recombinant Human SYK Enzyme:
For orientation: IC50 means the concentration that inhibits the measured activity by half. Regarding `Cc1cc(Nc2nccc(OCCCCOCc3ccccc3)n2)cc(-c2cnc(C3(O)CCC3)s2)c1` [Example 94A-11], the IC50 is 100 to 1000 nM. The result for `COCCCOc1ccnc(Nc2cc(C)cc(-c3cnc(C4(O)CCC4)s3)c2)n1` [Example 94A-12] reads under 100 nM; that for `Cc1cc(Nc2nccc(OCCCOCc3ccccc3)n2)cc(-c2cnc(C3(O)CCC3)s2)c1` [Example 94A-13], 100 to 1000 nM; that for `COCCOc1ccnc(Nc2cc(C)cc(-c3cnc(C4(O)CCC4)s3)c2)n1` [Example 94A-14], under 100 nM. The result for `Cc1cc(Nc2nccc(OCC3CCOC3)n2)cc(-c2cnc(C3(O)CCC3)s2)c1` (centres unmarked) [Example 94A-15] reads under 100 nM; that for `CCOC(=O)C1CCC(Oc2ccnc(Nc3cc(C)cc(-c4cnc(C5(O)CCC5)s4)c3)n2)CC1` (centres unmarked) [Example 94A-16, ethyl 4-{[2-({3-[2-(1-hydroxycyclobutyl)-1,3-thiazol-5-yl]-5-methylphenyl}-amino)pyrimidin-4-yl]oxy}cyclohexanecarboxylate], 100 to 1000 nM; that for `Cc1cc(Nc2nccc(OC3CCOCC3)n2)cc(-c2cnc(C3(O)CCC3)s2)c1` [Example 94A-17], under 100 nM. As for `Cc1cc(Nc2nccc(OC3CCC(N)CC3)n2)cc(-c2cnc(C3(O)CCC3)s2)c1` (centres unmarked) [Example 94A-18], the figure is under 100 nM; as for `Cc1cc(Nc2nccc(OC3CCNC(C)CC3)n2)cc(-c2cnc(C3(O)CCC3)s2)c1` (centres unmarked) [Example 94A-20], under 100 nM; as for `Cc1cc(Nc2nccc(OC3CCCNCC3)n2)cc(-c2cnc(C3(O)CCC3)s2)c1` (centres unmarked) [Example 94A-21], under 100 nM. On to `Cc1cc(Nc2nccc(O[C@H](C)C(=O)O)n2)cc(-c2cnc(C3(O)CCC3)s2)c1` [Example 94A-22], for which the IC50 was 100 to 1000 nM.

For the compound `CNCCOc1ccnc(Nc2cc(C)cc(-c3cnc(C4(O)CCC4)s3)c2)n1` [Example 94A-23], the IC50 was 100 to 1000 nM.

In the case of `Cc1cc(Nc2nccc(OCC3CCNCC3)n2)cc(-c2cnc(C3(O)CCC3)s2)c1` [Example 94A-24], the IC50 lay within 100 to 1000 nM. On to `Cc1cc(Nc2nccc(OC(C)(C)C(=O)OC(C)(C)C)n2)cc(-c2cnc(C3(O)CCC3)s2)c1` [Example 94A-25, tert-butyl 2-{[2-({3-[2-(1-hydroxycyclobutyl)-1,3-thiazol-5-yl]-5-methylphenyl}amino)-pyrimidin-4-yl]oxy}-2-methylpropanoate], for which the IC50 fell in the range of 100 to 1000 nM. As for `Cc1cc(Nc2nccc(OC3CCCNC3)n2)cc(-c2cnc(C3(O)CCC3)s2)c1` (centres unmarked) [Example 94A-26], the figure is under 100 nM; as for `Cc1cc(Nc2nccc(OCC3CNC3)n2)cc(-c2cnc(C3(O)CCC3)s2)c1` [Example 94A-27], under 100 nM. As for `Cc1cc(Nc2nccc(OC3CCOC3)n2)cc(-c2cnc(C3(O)CCC3)s2)c1` (centres unmarked) [Example 94A-29], the figure is under 100 nM; as for `Cc1cc(Nc2nccc(OC3CCC3)n2)cc(-c2cnc(C3(O)CCC3)s2)c1` [Example 94A-30], under 100 nM. As for `Cc1cc(Nc2nccc(OC3CCCC3)n2)cc(-c2cnc(C3(O)CCC3)s2)c1` [Example 94A-31], the figure is under 100 nM; as for `Cc1cc(Nc2nccc(OC3CCCCC3)n2)cc(-c2cnc(C3(O)CCC3)s2)c1` [Example 94A-32], 100 to 1000 nM; as for `Cc1cc(Nc2nccc(OC3CCNCC3)n2)cc(-c2cnc(C3(O)CCC3)s2)c1` [Example 94A-33], under 100 nM. In the case of `Cc1cc(Nc2nccc(OCc3ccccc3)n2)cc(-c2cnc(C(C)(O)C(F)(F)F)s2)c1` (centres unmarked) [Example 94B-1, 2-[5-(3-{[4-(benzyloxy)pyrimidin-2-yl]-amino}-5-methylphenyl)-1,3-thiazol-2-yl]-1,1,1-trifluoropropan-2-ol], the IC50 is under 100 nM. `Cc1cc(Nc2nccc(OC3CCC(C)(O)CC3)n2)cc(-c2cnc(C(C)(O)C(F)(F)F)s2)c1` (centres unmarked) [Example 94B-2]: the IC50 was under 100 nM. As for `Cc1cc(Nc2nccc(OC3CCC(OCc4ccccc4)CC3)n2)cc(-c2cnc(C(C)(O)C(F)(F)F)s2)c1` (centres unmarked) [Example 94B-3, 2-(5-{3-[(4-{[4-(benzyloxy)cyclohexyl]oxy}pyrimidin-2-yl)amino]-5-methylphenyl}-1,3-thiazol-2-yl)-1,1,1-trifluoropropan-2-ol], the figure is 100 to 1000 nM; as for `Cc1cc(Nc2nccc(OC3CCNCC3F)n2)cc(-c2cnc(C(C)(O)C(F)(F)F)s2)c1` (centres unmarked) [Example 94B-4], under 100 nM. The result for `Cc1cc(Nc2nccc(OC3CCNCC3)n2)cc(-c2cnc(C(C)(O)C(F)(F)F)s2)c1` (centres unmarked) [Example 94B-6] reads under 100 nM; that for `Cc1cc(Nc2nccc(O[C@H]3CCNC3)n2)cc(-c2cnc(C(C)(O)C(F)(F)F)s2)c1` (some centres unmarked) [Example 94B-9], under 100 nM. As for `CC(O)c1ncc(-c2cccc(Nc3nccc(OC4CCNCC4)n3)c2)s1` (centres unmarked) [Example 94B-10], the figure is under 100 nM. Consider `Cc1cc(Nc2nccc(N3CCCC(=O)NC3)n2)cc(-c2cnc(C3(O)CCC3)s2)c1` [Example 94C-1], for which the IC50 was under 100 nM. For `Cc1cc(Nc2nccc(OC(C)(C)C(=O)O)n2)cc(-c2cnc(C3(O)CCC3)s2)c1` [Example 95, 2-{[2-({3-[2-(1-hydroxycyclobutyl)-1,3-thiazol-5-yl]-5-methylphenyl}amino)pyrimidin-4-yl]oxy}-2-methylpropanoic acid], the concentration for half-maximal inhibition (IC50) is 100 to 1000 nM. As for `Cc1cc(Nc2nccc(OC3CCC(C(=O)O)CC3)n2)cc(-c2cnc(C3(O)CCC3)s2)c1` (centres unmarked) [Example 97, 4-{[2-({3-[2-(1-hydroxycyclobutyl)-1,3-thiazol-5-yl]-5-methylphenyl}amino)pyrimidin-4-yl]oxy}cyclohexanecarboxylic acid], the figure is under 100 nM.

As to `Cc1cc(Nc2nccc(Cl)n2)cc(-c2cnc(C(C)(O)C(F)(F)F)s2)c1` (centres unmarked) [Example 98, 2-(5-{3-[(4-chloropyrimidin-2-yl)amino]-5-methylphenyl}-1,3-thiazol-2-yl)-1,1,1-trifluoropropan-2-ol], the IC50 is under 100 nM.

Turning to `COc1ccnc(Nc2cc(C)cc(-c3cnc(C4(O)CCC4)s3)c2)n1` [Example 100A-1], the IC50 is under 100 nM. As for `Cc1cc(Nc2nccc(C)n2)cc(-c2cnc(C3(O)CCC3)s2)c1` [Example 100A-2], the figure is under 100 nM; as for `Cc1cc(Nc2ncccn2)cc(-c2cnc(C3(O)CCC3)s2)c1` [Example 100A-3], 100 to 1000 nM; as for `Cc1cc(Nc2ncc(F)cn2)cc(-c2cnc(C3(O)CCC3)s2)c1` [Example 100A-4], 100 to 1000 nM.

Regarding `Cc1cc(Nc2ncc(Cl)cn2)cc(-c2cnc(C3(O)CCC3)s2)c1` [Example 100A-5], the IC50 lay in the range of 100 to 1000 nM. With `CCc1cnc(Nc2cc(C)cc(-c3cnc(C4(O)CCC4)s3)c2)nc1` [Example 100A-6], the IC50 lay in the range of 100 to 1000 nM.

For the compound `Cc1cc(Nc2nccc(C#N)n2)cc(-c2cnc(C3(O)CCC3)s2)c1` [Example 100A-7], the IC50 was under 100 nM. As for `Cc1cc(Nc2nc(C)cc(C)n2)cc(-c2cnc(C3(O)CCC(C(=O)O)C(C)(C)C3)s2)c1` (centres unmarked) [Example 100A-9], the figure is 100 to 1000 nM; as for `COc1nc(Nc2cc(C)cc(-c3cnc(C4(O)CCC(O)CC4)s3)c2)ncc1C(F)(F)F` (centres unmarked) [Example 100A-11], 100 to 1000 nM; as for `COc1nc(Nc2cc(C)cc(-c3cnc(C4(O)CCC(C(=O)O)C(C)(C)C4)s3)c2)ncc1C` (centres unmarked) [Example 100A-13], under 100 nM. On to `Cc1cc(Nc2ncc(C)c(N(C)C)n2)cc(-c2cnc(C3(O)CCC(C(=O)O)C(C)(C)C3)s2)c1` (centres unmarked) [Example 100A-16], for which the IC50 is under 100 nM. Consider `Cc1cc(Nc2nccc(C(C)(C)O)n2)cc(-c2cnc(C3(O)CCC(C(=O)O)C(C)(C)C3)s2)c1` (centres unmarked) [Example 100A-17], for which the IC50 was under 100 nM. As for `Cc1cc(Nc2nccc(C(F)C3CC3)n2)cc(-c2cnc(C3(O)CCC(C(=O)O)C(C)(C)C3)s2)c1` (centres unmarked) [Example 100A-20], the figure is under 100 nM; as for `Cc1cc(Nc2nccc(C=CC(C)(C)O)n2)cc(-c2cnc(C3(O)CCC(C(=O)O)C(C)(C)C3)s2)c1` (centres unmarked) [Example 100A-23], under 100 nM; as for `Cc1cc(Nc2nccc(C(C)(O)C3CC3)n2)cc(-c2cnc(C3(O)CCC(C(=O)O)C(C)(C)C3)s2)c1` (centres unmarked) [Example 100A-24], under 100 nM. On to `COC(=O)C1CCC(O)(c2ncc(-c3cc(C)cc(Nc4ncc(C(F)(F)F)c(OC)n4)c3)s2)CC1(C)C` (centres unmarked) [Example 100A-27], for which the half-inhibitory concentration (IC50) lay within 1000 to 10000 nM. On to `COC(=O)[C@H]1CC[C@](O)(c2ncc(-c3cc(C)cc(Nc4ncc5c(n4)CCC5)c3)s2)CC1(C)C` [Example 100A-29], for which the IC50 was 100 to 1000 nM. As to `COc1ccnc(Nc2cc(C)cc(-c3cnc(C(C)(O)C(F)(F)F)s3)c2)n1` (centres unmarked) [Example 100B-1], the IC50 is under 100 nM. The result for `Cc1cc(Nc2ncc(F)cn2)cc(-c2cnc(C(C)(O)C(F)(F)F)s2)c1` (centres unmarked) [Example 100B-2] reads under 100 nM. The result for `COc1cnc(Nc2cc(C)cc(-c3cnc(C(C)(O)C(F)(F)F)s3)c2)nc1` (centres unmarked) [Example 100B-3] reads 100 to 1000 nM; that for `Cc1cc(Nc2ncc(C3CC3)cn2)cc(-c2cnc(C(C)(O)C(F)(F)F)s2)c1` (centres unmarked) [Example 100B-4], 1000 to 10000 nM. As for `Cc1cnc(Nc2cc(C)cc(-c3cnc(C(C)(O)C(F)(F)F)s3)c2)nc1` (centres unmarked) [Example 100], the figure is under 100 nM; as for `Cc1cc(Nc2ncccn2)cc(-c2cnc(C(C)(O)C(F)(F)F)s2)c1` (centres unmarked) [Example 101, 1,1,1-trifluoro-2-{5-[3-methyl-5-(pyrimidin-2-ylamino)phenyl]-1,3-thiazol-2-yl}propan-2-ol], 100 to 1000 nM; as for `CCOC(=O)C1CCC(O)(c2ncc(-c3cc(C)cc(Nc4nccc(C(C)(C)C)n4)c3)s2)CC1C` (centres unmarked) [Example 101-1], under 100 nM. On to `COC(=O)[C@H]1CC[C@](O)(c2ncc(-c3cc(C)cc(Nc4nccc(C(C)C)n4)c3)s2)CC1(C)C` [Example 101-2], for which the IC50 is under 100 nM. For the compound `COC(=O)[C@H]1CC[C@](O)(c2ncc(-c3cc(C)cc(Nc4nccc(C(C)(C)C)n4)c3)s2)CC1(C)C` [Example 101-3], the IC50 was under 100 nM. In the case of `COC(=O)[C@H]1CC[C@](O)(c2ncc(-c3cc(C)cc(Nc4nccc(OC(C)C)n4)c3)s2)CC1(C)C` [Example 101-4], the concentration for half-maximal inhibition (IC50) is under 100 nM.

Source of the values: US8551984B2, “Aminopyrimidines as SYK inhibitors” (Merck Sharp & Dohme Corp., priority 2009, dated 2013).
